{"source": "ChEMBL document CHEMBL3244272", "about": "“Folate antagonists. 15. 2,3-Diamino-6-(2-naphthylsulfonyl)quinazoline and related 2,4-diamino-6-[(phenyl and naphthyl)sulfinyl and sulfonyl]quinazolines, a potent new class of antimetabolites with phenomenal antimalarial activity” (J Med Chem, 1979)", "key": {"[1]": {"system": "Plasmodium falciparum", "assay": "Antimalarial activity against chloroquine-resistant, pyrimethamine-sensitive Plasmodium falciparum Vietnam Oak Knoll in Aotus monkey assessed as dose required to >50% cures compound treated for 7 days", "format": "functional"}, "[2]": {"system": "Plasmodium falciparum", "assay": "Antimalarial activity against chloroquine-sensitive, pyrimethamine-resistant Plasmodium falciparum Malayan Camp CH/Q infected in Aotus monkey assessed as dose required to >50% cures compound treated for 7 days", "format": "functional"}, "[3]": {"system": "Plasmodium gallinaceum", "assay": "Antimalarial activity against cycloguanil-resistant Plasmodium gallinaceum infected in mouse assessed as dose required to suppress parasitemia by 90% compound treated through diet for 6 days relative to parent strain", "format": "functional"}, "[4]": {"system": "Plasmodium berghei", "assay": "Antimalarial activity against trophozoite-induced Plasmodium berghei infected in mouse assessed as change in mean survival time at 2.5 mg/kg, sc single dose after 72 hrs of infection", "format": "functional", "settings": "route subcutaneous"}, "[5]": {"system": "Gallus gallus", "assay": "Toxicity in trophozoite-induced Plasmodium gallinaceum infected in chick assessed as death at 80 mg/kg, sc single dose measured within 48 hrs", "format": "organism-based", "design": "dose 80 mg/kg, route subcutaneous", "settings": "chicken, in vivo"}, "[6]": {"system": "Plasmodium gallinaceum", "assay": "Antimalarial activity against trophozoite-induced Plasmodium gallinaceum infected in chick assessed as cured at 0.63 mg/kg, sc single dose", "format": "functional, organism-based", "design": "dose 0.63 mg/kg"}, "[7]": {"system": "Plasmodium gallinaceum", "assay": "Antimalarial activity against trophozoite-induced Plasmodium gallinaceum infected in chick assessed as cured at 1.25 mg/kg, sc single dose", "format": "functional, organism-based", "design": "dose 1.25 mg/kg"}, "[8]": {"system": "Gallus gallus", "assay": "Toxicity in trophozoite-induced Plasmodium gallinaceum infected in chick assessed as death at 1.25 mg/kg, sc single dose measured within 48 hrs", "format": "organism-based", "design": "dose 1.25 mg/kg, route subcutaneous", "settings": "chicken, in vivo"}, "[9]": {"system": "Plasmodium gallinaceum", "assay": "Antimalarial activity against trophozoite-induced Plasmodium gallinaceum infected in chick assessed as mean survival time at 0.63 mg/kg, sc single dose (reference value: 4 days)", "format": "functional", "settings": "route subcutaneous"}, "[10]": {"system": "Gallus gallus", "assay": "Toxicity in trophozoite-induced Plasmodium gallinaceum infected in chick assessed as death at 2.5 mg/kg, sc single dose measured within 48 hrs", "format": "organism-based", "design": "dose 2.5 mg/kg, route subcutaneous", "settings": "chicken, in vivo"}, "[11]": {"system": "Plasmodium berghei", "assay": "Antimalarial activity against trophozoite-induced Plasmodium berghei infected in mouse assessed as change in mean survival time at 1.25 mg/kg, sc single dose after 72 hrs of infection", "format": "functional", "settings": "route subcutaneous"}, "[12]": {"system": "Plasmodium gallinaceum", "assay": "Antimalarial activity against trophozoite-induced Plasmodium gallinaceum infected in chick assessed as mean survival time at 2.5 mg/kg, sc single dose (reference value: 4 days)", "format": "functional", "settings": "route subcutaneous"}, "[13]": {"system": "Gallus gallus", "assay": "Toxicity in trophozoite-induced Plasmodium gallinaceum infected in chick assessed as death at 320 mg/kg, sc single dose measured within 48 hrs", "format": "organism-based", "design": "dose 320 mg/kg, route subcutaneous", "settings": "chicken, in vivo"}, "[14]": {"system": "Plasmodium gallinaceum", "assay": "Antimalarial activity against trophozoite-induced Plasmodium gallinaceum infected in chick assessed as mean survival time at 1.25 mg/kg, sc single dose (reference value: 4 days)", "format": "functional", "settings": "route subcutaneous"}, "[15]": {"system": "Gallus gallus", "assay": "Toxicity in trophozoite-induced Plasmodium gallinaceum infected in chick assessed as death at 5 mg/kg, sc single dose measured within 48 hrs", "format": "organism-based", "design": "dose 5 mg/kg, route subcutaneous", "settings": "chicken, in vivo"}, "[16]": {"system": "Plasmodium gallinaceum", "assay": "Antimalarial activity against trophozoite-induced Plasmodium gallinaceum infected in chick assessed as mean survival time at 5 mg/kg, sc single dose (reference value: 4 days)", "format": "functional", "settings": "route subcutaneous"}, "[17]": {"system": "Gallus gallus", "assay": "Toxicity in trophozoite-induced Plasmodium gallinaceum infected in chick assessed as death at 0.63 mg/kg, sc single dose measured within 48 hrs", "format": "organism-based", "design": "dose 0.63 mg/kg, route subcutaneous", "settings": "chicken, in vivo"}, "[18]": {"system": "Plasmodium gallinaceum", "assay": "Antimalarial activity against trophozoite-induced Plasmodium gallinaceum infected in chick assessed as cured at 2.5 mg/kg, sc single dose", "format": "functional, organism-based", "design": "dose 2.5 mg/kg"}, "[19]": {"system": "Gallus gallus", "assay": "Toxicity in trophozoite-induced Plasmodium gallinaceum infected in chick assessed as death at 10 mg/kg, sc single dose measured within 48 hrs", "format": "organism-based", "design": "dose 10 mg/kg, route subcutaneous", "settings": "chicken, in vivo"}, "[20]": {"system": "Gallus gallus", "assay": "Toxicity in trophozoite-induced Plasmodium gallinaceum infected in chick assessed as death at 40 mg/kg, sc single dose measured within 48 hrs", "format": "organism-based", "design": "dose 40 mg/kg, route subcutaneous", "settings": "chicken, in vivo"}, "[21]": {"system": "Plasmodium gallinaceum", "assay": "Antimalarial activity against trophozoite-induced Plasmodium gallinaceum infected in chick assessed as mean survival time at 10 mg/kg, sc single dose (reference value: 4 days)", "format": "functional", "settings": "route subcutaneous"}, "[22]": {"system": "Plasmodium berghei", "assay": "Antimalarial activity against trophozoite-induced Plasmodium berghei infected in sc dosed mouse assessed as minimum curative dose", "format": "functional"}, "[23]": {"system": "Gallus gallus", "assay": "Toxicity in trophozoite-induced Plasmodium gallinaceum infected in chick assessed as death at 160 mg/kg, sc single dose measured within 48 hrs", "format": "organism-based", "design": "dose 160 mg/kg, route subcutaneous", "settings": "chicken, in vivo"}, "[24]": {"system": "Gallus gallus", "assay": "Toxicity in trophozoite-induced Plasmodium gallinaceum infected in chick assessed as death at 20 mg/kg, sc single dose measured within 48 hrs", "format": "organism-based", "design": "dose 20 mg/kg, route subcutaneous", "settings": "chicken, in vivo"}}, "note": "Active and inactive are the calls of the source. The rule behind the calls is not given here."}
{"smiles": "Nc1nc(N)c2cc(Sc3ccc(Cl)cc3)ccc2n1", "values": [{"measurement": "Activity", "setting": "[1]", "value": 0.31, "unit": "mg/kg"}, {"measurement": "Activity", "setting": "[2]", "value": 5, "unit": "mg/kg"}, {"measurement": "fold change (FC)", "setting": "[3]", "value": 4}]}
{"smiles": "Nc1nc(N)c2cc(S(=O)(=O)c3ccc(Cl)cc3)ccc2n1", "values": [{"measurement": "MST", "setting": "[4]", "value": 12.2, "unit": "days"}, {"measurement": "Activity", "setting": "[5]", "value": "Toxic"}, {"measurement": "Activity", "setting": "[6]", "value": "Active"}, {"measurement": "Activity", "setting": "[7]", "value": "Active"}, {"measurement": "Activity", "setting": "[8]", "value": "Toxic"}, {"measurement": "MST", "setting": "[9]", "value": 4, "unit": "days"}, {"measurement": "Activity", "setting": "[10]", "value": "Toxic"}, {"measurement": "MST", "setting": "[11]", "value": 7.7, "unit": "days"}, {"measurement": "MST", "setting": "[12]", "value": 15, "unit": "days"}, {"measurement": "Activity", "setting": "[13]", "value": "Toxic"}, {"measurement": "MST", "setting": "[14]", "value": 7.4, "unit": "days"}, {"measurement": "Activity", "setting": "[15]", "value": "Toxic"}, {"measurement": "MST", "setting": "[16]", "value": 16, "unit": "days"}, {"measurement": "Activity", "setting": "[17]", "value": "Toxic"}, {"measurement": "Activity", "setting": "[18]", "value": "Active"}, {"measurement": "Activity", "setting": "[19]", "value": "Toxic"}, {"measurement": "Activity", "setting": "[20]", "value": "Toxic"}, {"measurement": "MST", "setting": "[21]", "value": 20, "unit": "days"}, {"measurement": "MCD", "setting": "[22]", "value": 40, "unit": "mg/kg"}, {"measurement": "Activity", "setting": "[23]", "value": "Toxic"}, {"measurement": "Activity", "setting": "[24]", "value": "Toxic"}]}
